# Laboratory results from patent publication US20220252625A1, “TREATMENT AND DIAGNOSIS OF CHRONIC INFLAMMATORY CONDITIONS IN THE LOWER URINARY TRACT” (SELECTIMMUNE PHARMA AB, priority 2019, published 2022).
# Where “and” joins values, the source holds several entries; their conditions need not be identical. Equal values may be shown once. Entries after “also recorded” stand apart in the source; their conditions may differ. Read-outs that look alike come from different tables or passages of the source.
# Key:
# [1] = tested on: patients with chronic cystitis and CPPS; experiment: Open Anakinra trial, symptom score; type: in vivo, human
# Method: The applicants have performed an open Anakinra trial in patients with chronic inflammatory conditions in the lower urinary tract, specifically chronic cystitis and CPPS. This structured observational study to investigate the effect of treatment with Anakinra in patients suffering from chronic cystitis and CPPS.
# Inclusion visit: Patient is informed about the study and is included after signed informed consent is obtained. A structured interview and clinical investigation is performed. The disease severity is evaluated using a symptom score. Follow-up visits are booked.
# A structured interview and clinical investigation is performed. Symptom severity is recorded.
# Treatment with Anakinra is started and continued for seven days (until next visit).
# Evaluation of effect after one week of treatment with Anakinra. A structured interview and clinical investigation are performed. Symptom severity is evaluated. Patients with no treatment effect are excluded from further treatment.
# Follow-up after treatment pause. A structured interview and clinical investigation is performed. Symptom severity is evaluated. If the patient has relapse, Anakinra treatment is resumed.
# Follow-up with evaluation of effect after three weeks of treatment with Anakinra. A structured interview and clinical investigation is performed. Symptom severity is evaluated.
# Final visit after pause of treatment with Anakinra. A structured interview and clinical investigation is performed. Symptom severity is evaluated.
# During patient visits, structured interviews evaluating symptoms (including consumption of medications) and clinical investigations are performed. Throughout the study period, the patients make daily symptom scores regarding pain, urination, sense of urgency and quality of life following a structured formula.
# IL-1β = experiment: Urine IL-1β concentration, patients with chronic cystitis; type: in vivo, human; details: FIG. 5
# Method: Samples: Blood and urine samples for investigation of inflammatory processes as well as genetic and proteomic analyses.
# For evaluation of the levels of systemic and local inflammatory processes, analyses of CRP, neutrophil count and Interleukins are performed in serum and urine.
# To be able to define a treatment group where anakinra might serve as an effective therapeutic option, we searched for urine biomarkers. In addition to patient urine samples, samples were collected from healthy controls to compare urine concentrations of IL-1β and Substance P (SP). […] In contrast, SP concentrations was increased in patients during maximum symptoms (209 vs 75 pg/ml, P=0.003), indicating a biomarker for bladder inflammation (FIG. 2).
# Substance P = experiment: Ten-patient CPPS trial: urine neuropeptides; type: in vivo, human; details: P<0.001
# Method: A significant reduction in pain, urgency and frequency of urination was recorded in 9/10 patients (FIGS. 7c, 7d and 7e). Laboratory samples were obtained at diagnosis, after the initiation of anakinra treatment (n=10), during the “treatment break” and after continuation of anakinra treatment (n=9). Urine neuropeptides involved in the pain response (Substance P) were inhibited, with a biphasic response following the symptom score (FIG. 7f).
# [2] = tested on: patients with CPPS (Bladder, Urethral and Prostate Pain phenotype); experiment: Clinical study, nine CPPS patients: symptom scoring (frequency, pain, QoL), side effects; type: in vivo, human; details: for clinical response in the detailed patient description, words: one patient per block (Patient 1-9); for Long-term follow-up: Comment: s.c. 100 mg long-term regimen, observation 24-397 days
# Source text: (§1) The effect of anakinra in the treatment of CPPS was studied in a clinical study. Inclusion criteria were CPPS mainly with the Bladder Pain phenotype, but also the with the Urethral and Prostate Pain phenotype. Exclusion criteria were uncontrolled diabetes mellitus, treatment for malignant disease within the preceding 10 years, pregnancy and age <18 years and ongoing infectious diseases, including urinary tract infections, and neutropenia (<1.5×10^9/L). Patients gave informed consent for the use of unidentified personal clinical data for research purposes. Included patients were examined using clinical standard methods to rule out any ongoing disease. Blood and serum for hemoglobulin, liver and kidney function tests and White Blood Cell (WBC) counts were analysed. Urine was obtained for dip stick test (leukocytesteras for WBC estimation, the nitur test for ruling out bacteriuria), standard urinary Interleukins (IL6, IL8 and IL1b) and for urine culture. Cystoscopy and CT urography were performed in all patients. Blood and serum analysis and cystoscopy were repeated approximately two weeks after the start of treatment, and after approximately three months. Nine patients were recruited (Table 2).
# After inclusion, patients were treated with anakinra 100 mg by self-administrated subcutaneous injection, repeated once daily as a maximum, or (if relief of symptoms and pain) on demand when symptoms or pain recurred. Regularly symptom scoring on frequency, supra-pubic/bladder pain/prostate/urethral pain and Quality of Life was performed to evaluate treatment effect.
# [3] = tested on: WBC and Interleukins (IL6, IL8 and IL1b) in urine; experiment: Nine-patient study: estimated WBC and Interleukins in urine; type: in vivo, human; details: prior, during or after treatment
# Source text: as §1
# [4] = tested on: neuro-inflammation, TLR dependent pattern recognition and IL-1 signaling; IL-1R1 dependent gene network; experiment: BPS trial: transcriptomic analysis of peripheral blood RNA; type: in vivo, human; details: for gene expression, words: peripheral blood RNA
# Source text: a) Schematic of the study protocol. Ten patients with a long history of BPS (ref EAU guidelines) were enrolled after informed consent and instructed to fill in a questionnaire detailing frequency of urination, pain, frequency of pain medication and quality of life. Laboratory samples were obtained at diagnosis, after the initiation of Kineret treatment (n=10), during the “treatment break” and after continuation of Kineret treatment (n=9). Neuropeptides involved in the pain response (Substance P) were quantified in urine. Peripheral blood RNA was subjected to genome wide transcriptomic analysis to define molecular effects of Kineret treatment.
# To further understand the molecular basis of these effects, gene expression was analyzed longitudinally in RNA samples obtained; at onset, when the patients were in pain; at the time of maximum treatment effect in the first round; when pain returned during the treatment break; after reintroduction of Anakinra and at follow up, after 1-2 years of treatment. […] Due to the pronounced effect on IL-1 related genes, we further investigated a gene network downstream of IL-1R1. In 8 out of 10 patients a marked reduction in IL-1R1 dependent gene expression was detected, primarily genes including CXCL1, IL1RAP CXCL3 and the IL1R1 gene itself.
# murine cystitis model = details: mice, cited from earlier work
# NK1R and its ligand SP = details: mice; cited from earlier work
# [5] = post treatment, individual patients
# [6] = pre treatment baseline, individual patients
substance,measurement,setting,value
"anakinra: interleukin-1 receptor antagonist (r-metHuIL-1ra) produced in Escherichia coli; recombinant, slightly modified version of the human interleukin-1 receptor antagonist protein",patients in whom treatment was proven effective (decrease in symptom scoring),[1]; in vivo,60%
same,Symptom Score Decrease at 1 week of treatment (number of patients),[1]; of 15 patients recruited,9
same,Symptom Score No Decrease at 1 week of treatment (number of patients),[1]; of 15 patients recruited,6
same,urine IL-1β levels after Anakinra treatment,IL-1β,do not change
same,"urine neuropeptide (Substance P) levels, words",Substance P,markedly reduced; also recorded: inhibited
same,side effects,[2]; 100 mg s.c.,sparse and mild; also recorded: two cases of skin reaction at the place of injection; also recorded: one case of headache post injection; also recorded: without side effects; also recorded: minor headache
same,Side effect,"[2]; 100 mg s.c., individual patients",local s.c. irritation; also recorded: not reported; also recorded: headache post inj
same,"clinical response in the detailed patient description, words",[2]; 100 mg s.c.,"subjectively significantly improved with a clear reduction in frequency and local pain from the bladder; also recorded: pain relief followed immediately; also recorded: constant relief of symptoms; also recorded: the urge, frequency and bladder pain dramatically decreased; also recorded: the urgency and frequency was dramatically reduced; also recorded: relief of fever attacks and arthralgia, as well as reduced urgency and frequency"
same,"clinical response in the detailed patient description, words","[2]; 100 mg s.c., listed as Anakinra",significant symptom and pain relief; also recorded: constant relief of symptoms
same,maximum effect generally lasted,[2]; after one s.c. inj. of 100 mg,2 to 3 days
same,maximum effect on symptoms seen within,"[2]; after one s.c. inj. of 100 mg, all nine patients",1 to 24 h
same,"symptoms as measured by symptom scoring, words",[2]; all patients,dramatically reduced symptoms
same,"treatment effect during long-term follow-up, words",[2]; all patients,consistent
same,"experienced quality of life (QoL), words","[2]; human, in vivo","increased in all patients; also recorded: highly increased, or increased"
same,"number of micturitions at night-time, words","[2]; human, in vivo",generally reduced
same,"number of micturitions during daytime, words","[2]; human, in vivo",reduced in all patients
same,"pain experienced by the patients, words","[2]; human, in vivo",decreased dramatically
same,patients completely free from pain,[2]; of nine patients,five out of the nine
same,Frequency (nycturia) post (number of micturations during nighttime),[2]; [5],(0) and (1) (6×) and (2)
same,Frequency post (number of micturations during daytime),[2]; [5],5 (2×) and 4 (2×) and 6 (3×) and 8
same,Frequency (nycturia) pre (number of micturations during nighttime),[2]; [6],(1-2) and (5) (3×) and (3) (2×) and (4) and (1)
same,Frequency pre (number of micturations during daytime),[2]; [6],12 (4×) and 11 and 8 (2×) and 7
same,Long-term follow-up: Comment,"[2]; individual patients, 100 mg s.c. dosing 1 per 2-4 weeks","increased QoL,; also recorded: symptom free"
same,Long-term follow-up: Comment,"[2]; individual patients, 100 mg s.c. dosing 1 per 2-3 days",highly increased QoL
same,Long-term follow-up: Comment,"[2]; individual patients, 100 mg s.c. dosing 1 per day","highly increased QoL,; also recorded: planned cystectomy postponed"
same,Long-term follow-up: Comment,"[2]; individual patients, 100 mg s.c. dosing 1 per week","highly increased QoL; also recorded: highly increased QoL,; also recorded: highly increased QoL;"
same,QoL reduction post,"[2]; score 0-6, 0 not reduced QoL, post treatment, individual patients",2 (2×) and 1 (2×) and 0 (5×)
same,Pain post,"[2]; score 0-6, 0 symptom-free, post treatment, individual patients",2 (2×) and 1 (2×) and 0 (5×)
same,Pain pre,"[2]; score 0-6, 6 severe pain, pre treatment baseline, individual patients",5 (3×) and 5-6 and 6 and 4 (4×)
same,QoL reduction pre,"[2]; score 0-6, 6 severely reduced QoL, pre treatment baseline, individual patients",5 (3×) and 5-6 and 6 (2×) and 4 (3×)
same,"estimated WBC and Interleukins in urine, words",[3],not significantly increased
same,patients with marked reduction in IL-1R1 dependent gene expression,"[4]; genes including CXCL1, IL1RAP, CXCL3, IL1R1",8 out of 10
same,"gene expression, words",[4],inhibited by treatment
same,"gene expression, words",[4]; listed as Kineret,inhibited
same,"bacterial clearance, words",murine cystitis model,accelerate bacterial clearance
same,"bladder inflammation, words",murine cystitis model,dramatically reduce bladder inflammation
same,"bacterial clearance, words",murine cystitis model; listed as Kineret,increased bacterial clearance
same,"bladder inflammation, words",murine cystitis model; listed as Kineret,dramatically reduced bladder inflammation
same,"expression of NK1R and SP in the bladder mucosa, words",NK1R and its ligand SP,reduced the expression of the pain receptor NK1R and its ligand SP
